# In the oligonucleotide strings, read from the 5' end, every base follows the letter of its sugar. An asterisk marks phosphorothioate; unmarked linkages are phosphodiester. Other units and linkages are bracketed, terminal groups are in braces. A string of capitals states the bases alone. e = 2'-O-(2-methoxyethyl) (MOE); [5mC] = 5-methylcytosine; d = 2'-deoxy (DNA)
# System: human apolipoprotein B mRNA
# Assay: Inhibition of human apolipoprotein B mRNA levels in HepG2 cells, quantitative real-time PCR
# Type: cell-based
# Conditions: HepG2 cells treated with 150 nM of compound; averages from two experiments; quantitative real-time PCR
# Method: The human hepatoblastoma cell line HepG2 was obtained from the American Type Culture Collection (Manassas, Va.). HepG2 cells were routinely cultured in Eagle's MEM supplemented with 10% fetal calf serum, non-essential amino acids, and 1 mM sodium pyruvate (Gibco/Life Technologies, Gaithersburg, Md.). Cells were routinely passaged by trypsinization and dilution when they reached 90% confluence. Cells were seeded into 96-well plates (Falcon-Primaria #3872) at a density of 7000 cells/well for use in RT-PCR analysis.
# When cells reached 80% confluency, they were treated with oligonucleotide. For cells grown in 96-well plates, wells were washed once with 200 μL OPTI-MEM™-1 reduced-serum medium (Gibco BRL) and then treated with 130 μL of OPTI-MEM™-1 containing 3.75 μg/mL LIPOFECTIN™ (Gibco BRL) and the desired concentration of oligonucleotide. After 4-7 hours of treatment, the medium was replaced with fresh medium. Cells were harvested 16-24 hours after oligonucleotide treatment.
# Quantitation of apolipoprotein B mRNA levels was determined by real-time quantitative PCR using the ABI PRISM™ 7700 Sequence Detection System (PE-Applied Biosystems, Foster City, Calif.) according to manufacturer's instructions. This is a closed-tube, non-gel-based, fluorescence detection system which allows high-throughput quantitation of polymerase chain reaction (PCR) products in real-time. As opposed to standard PCR, in which amplification products are quantitated after the PCR is completed, products in real-time quantitative PCR are quantitated as they accumulate. This is accomplished by including in the PCR reaction an oligonucleotide probe that anneals specifically between the forward and reverse PCR primers, and contains two fluorescent dyes. A reporter dye (e.g., JOE, FAM, or VIC, obtained from either Operon Technologies Inc., Alameda, Calif. or PE-Applied Biosystems, Foster City, Calif.) is attached to the 5′ end of the probe and a quencher dye (e.g., TAMRA, obtained from either Operon Technologies Inc., Alameda, Calif. or PE-Applied Biosystems, Foster City, Calif.) is attached to the 3′ end of the probe. When the probe and dyes are intact, reporter dye emission is quenched by the proximity of the 3′ quencher dye. During amplification, annealing of the probe to the target sequence creates a substrate that can be cleaved by the 5′-exonuclease activity of Taq polymerase. […] With each cycle, additional reporter dye molecules are cleaved from their respective probes, and the fluorescence intensity is monitored at regular intervals by laser optics built into the ABI PRISM™ 7700 Sequence Detection System. In each assay, a series of parallel reactions containing serial dilutions of mRNA from untreated control samples generates a standard curve that is used to quantitate the percent inhibition after antisense oligonucleotide treatment of test samples.
# PCR reagents were obtained from PE-Applied Biosystems, Foster City, Calif. RT-PCR reactions were carried out by adding 25 μL PCR cocktail (1× TAQMAN™ buffer A, 5.5 mM MgCl2, 300 μM each of DATP, dCTP and dGTP, 600 μM of dUTP, 100 nM each of forward primer, reverse primer, and probe, 20 Units RNAse inhibitor, 1.25 Units AMPLITAQ GOLD™, and 12.5 Units MuLV reverse transcriptase) to 96 well plates containing 25 μL total RNA solution. The RT reaction was carried out by incubation for 30 minutes at 48° C. Following a 10 minute incubation at 95° C. to activate the AMPLITAQ GOLD™, 40 cycles of a two-step PCR protocol were carried out: 95° C. for 15 seconds (denaturation) followed by 60° C. for 1.5 minutes (annealing/extension).
# Gene target quantities obtained by real time RT-PCR are normalized using either the expression level of GAPDH, a gene whose expression is constant, or by quantifying total RNA using RiboGreen™ (Molecular Probes, Inc. Eugene, Oreg.). GAPDH expression is quantified by real time RT-PCR, by being run simultaneously with the target, multiplexing, or separately. […]
row,Substance,% INHIB (inhibition of human apolipoprotein B mRNA levels) [%]
1,271020 (antisense eT*eT*eG*eA*eA*dT*d[5mC]*d[5mC]*dA*dG*dG*dA*dT*dG*d[5mC]*eA*eG*eT*eA*e[5mC]) [compound 271020],35
2,271021 (antisense eG*eA*eG*eT*e[5mC]*dT*d[5mC]*dT*dG*dA*dG*dT*d[5mC]*dA*d[5mC]*e[5mC]*eT*e[5mC]*eA*e[5mC]) [compound 271021],38
3,271022 (antisense eG*eA*eT*eA*eG*dA*dA*dT*dA*dT*dT*dG*d[5mC]*dT*d[5mC]*eT*eG*e[5mC]*eA*eA) [compound 271022],100
4,271023 (antisense e[5mC]*e[5mC]*e[5mC]*eT*eT*dG*d[5mC]*dT*d[5mC]*dT*dA*d[5mC]*d[5mC]*dA*dA*eT*eG*e[5mC]*eT*eT) [compound 271023],44
5,271025 (eT*e[5mC]*e[5mC]*eA*eT*dT*d[5mC]*d[5mC]*d[5mC]*dT*dA*dT*dG*dT*d[5mC]*eA*eG*e[5mC]*eA*eT; antisense) [compound 271025],16
6,271026 (eG*eA*e[5mC]*eT*e[5mC]*d[5mC]*dT*dT*d[5mC]*dA*dG*dA*dG*d[5mC]*d[5mC]*eA*eG*e[5mC]*eG*eG; antisense) [compound 271026],39
7,271027 (e[5mC]*e[5mC]*e[5mC]*eA*eT*dG*d[5mC]*dT*d[5mC]*d[5mC]*dG*dT*dT*d[5mC]*dT*e[5mC]*eA*eG*eG*eT; antisense) [compound 271027],26
8,271028 (e[5mC]*eG*e[5mC]*eA*eG*dG*dT*d[5mC]*dA*dG*d[5mC]*d[5mC]*dT*dG*dA*e[5mC]*eT*eA*eG*eA; antisense) [compound 271028],98
9,271030 (e[5mC]*eA*eG*eT*eT*dA*dG*dA*dA*d[5mC]*dA*d[5mC]*dT*dG*dT*eG*eG*e[5mC]*e[5mC]*e[5mC]; antisense) [compound 271030],52
10,271031 (e[5mC]*eA*eG*eT*eG*dT*dG*dA*dT*dG*dA*d[5mC]*dA*d[5mC]*dT*eT*eG*eA*eT*eT; antisense) [compound 271031],49
11,271032 (e[5mC]*eT*eG*eT*eG*dG*d[5mC]*dT*dA*dA*d[5mC]*dT*dT*d[5mC]*dA*eA*eT*e[5mC]*e[5mC]*e[5mC]; antisense) [compound 271032],22
12,271033 (e[5mC]*eA*eG*eT*eA*d[5mC]*dT*dG*dT*dT*dA*dT*dG*dA*d[5mC]*eT*eA*e[5mC]*e[5mC]*e[5mC]; antisense) [compound 271033],34
13,271034 (e[5mC]*eA*e[5mC]*eT*eG*dA*dA*dG*dA*d[5mC]*d[5mC]*dG*dT*dG*dT*eG*e[5mC]*eT*e[5mC]*eT; antisense) [compound 271034],35
14,271035 (eT*e[5mC]*eG*eT*eA*d[5mC]*dT*dG*dT*dG*d[5mC]*dT*d[5mC]*d[5mC]*d[5mC]*eA*eG*eA*eG*eG; antisense) [compound 271035],23
15,271036 (eA*eA*eG*eA*eG*dG*d[5mC]*d[5mC]*d[5mC]*dT*d[5mC]*dT*dA*dG*d[5mC]*eT*eG*eT*eA*eA; antisense) [compound 271036],95
16,271037 (eA*eA*eG*eA*e[5mC]*d[5mC]*d[5mC]*dA*dG*dA*dA*dT*dG*dA*dA*eT*e[5mC]*e[5mC]*eG*eG; antisense) [compound 271037],23
17,271038 (eG*eT*e[5mC]*eT*eA*d[5mC]*d[5mC]*dT*d[5mC]*dA*dA*dA*dG*d[5mC]*dG*eT*eG*e[5mC]*eA*eG; antisense) [compound 271038],29
18,271039 (eT*eA*eG*eA*eG*dG*d[5mC]*dT*dA*dA*d[5mC]*dG*dT*dA*d[5mC]*e[5mC]*eA*eT*e[5mC]*eT; antisense) [compound 271039],4
19,271041 (e[5mC]*e[5mC]*eA*eT*eA*dT*d[5mC]*d[5mC]*dA*dT*dG*d[5mC]*d[5mC]*d[5mC]*dA*e[5mC]*eG*eG*eT*eG; antisense) [compound 271041],37
20,271042 (eA*eG*eT*eT*eT*d[5mC]*d[5mC]*dT*d[5mC]*dA*dT*d[5mC]*dA*dG*dA*eT*eT*e[5mC]*e[5mC]*e[5mC]; antisense) [compound 271042],57
21,271043 (e[5mC]*e[5mC]*e[5mC]*eA*eG*dT*dG*dG*dT*dA*d[5mC]*dT*dT*dG*dT*eT*eG*eA*e[5mC]*eA; antisense) [compound 271043],68
22,271044 (e[5mC]*e[5mC]*e[5mC]*eA*eG*dT*dG*dG*dT*dG*d[5mC]*d[5mC]*dA*d[5mC]*dT*eG*eG*e[5mC]*eT*eG; antisense) [compound 271044],22
23,271045 (eG*eT*e[5mC]*eA*eA*d[5mC]*dA*dG*dT*dT*d[5mC]*d[5mC]*dT*dG*dG*eT*eA*e[5mC]*eA*eG; antisense) [compound 271045],19
24,271046 (e[5mC]*e[5mC]*e[5mC]*eT*eA*dG*dT*dG*dT*dA*dT*dA*dT*d[5mC]*d[5mC]*e[5mC]*eA*eG*eG*eT; antisense) [compound 271046],61
25,271048 (e[5mC]*eT*eG*eA*eA*dG*dA*dT*dT*dA*d[5mC]*dG*dT*dA*dG*e[5mC]*eA*e[5mC]*e[5mC]*eT; antisense) [compound 271048],7
26,271049 (eG*eT*e[5mC]*e[5mC]*eA*dG*d[5mC]*d[5mC]*dA*dA*d[5mC]*dT*dA*dT*dA*e[5mC]*eT*eT*eG*eG; antisense) [compound 271049],54
27,271050 (e[5mC]*e[5mC]*eT*eG*eG*dA*dG*d[5mC]*dA*dA*dG*d[5mC]*dT*dT*d[5mC]*eA*eT*eG*eT*eA; antisense) [compound 271050],42
28,281586 (eT*eG*eG*eA*e[5mC]*dA*dG*dA*d[5mC]*d[5mC]*dA*dG*dG*d[5mC]*dT*eG*eA*e[5mC]*eA*eT; antisense) [compound 281586],80
29,281587 (eA*eT*eG*eT*eG*dT*dA*d[5mC]*dT*dT*d[5mC]*d[5mC]*dG*dG*dA*eG*eG*eT*eG*e[5mC]; antisense) [compound 281587],77
30,281588 (eT*e[5mC]*eT*eT*e[5mC]*dA*dG*dG*dA*dT*dG*dA*dA*dG*d[5mC]*eT*eG*e[5mC]*eA*eG; antisense) [compound 281588],80

# Same assay, conditions: Table 12; HepG2 cells, 150 nM; averages from two experiments
row,Substance,% INHIB [%]
1,271024 (eG*e[5mC]*eT*e[5mC]*eA*d[5mC]*dT*dG*dT*dT*d[5mC]*dA*dG*d[5mC]*dA*eT*e[5mC]*eT*eG*eG; antisense) [compound 271024],27
2,271040 (eG*eT*e[5mC]*e[5mC]*eT*dT*d[5mC]*dA*dT*dA*dT*dT*dT*dG*d[5mC]*e[5mC]*eA*eT*e[5mC]*eT; antisense) [compound 271040],0
3,271047 (e[5mC]*e[5mC]*eT*e[5mC]*e[5mC]*d[5mC]*dT*d[5mC]*dA*dT*dG*dA*dA*d[5mC]*dA*eT*eA*eG*eT*eG; antisense) [compound 271047],32

# From patent publication US7803930B2, “Antisense modulation of apolipoprotein B-expression” (Isis Pharmaceuticals, Inc., priority 2002, dated 2010)
